Data taken from US20080227853A1, “ANDROGENE MEMBRANE RECEPTOR AGONIST” (BIONATURE E. A. LIMITED, priority 2007, published 2008).

The compounds below were run on T47D human breast cancer cells (assay: Actin cytoskeleton modification in T47D cells (rhodamine-phalloidin staining)). Conditions: T47D cells incubated 24 hours, FIG. 3.
Format: cell-based

| Compound | modifications of the actin cytoskeleton |
| --- | --- |
| Oc1cc(O)c2c(c1)O[C@H](c1ccc(O)c(O)c1)[C@H](O)[C@H]2c1c(O)cc(O)c2c1O[C@H](c1ccc(O)c(O)c1)[C@H](O)C2 [B2] | polymerization and sub-membrane redistribution |
| Oc1cc(O)c2c(c1)O[C@H](c1ccc(O)c(O)c1)[C@H](O)[C@H]2c1c(O)cc2c(c1O)C[C@@H](O)[C@@H](c1ccc(O)c(O)c1)O2 [B5] | polymerization and sub-membrane redistribution |
| catechin | polymerization and sub-membrane redistribution |
